Literature values in patent US7427493B2, “Recombinant genes for polyketide modifying enzymes” (Kosan Biosciences Incorporated, priority 2002, dated 2008).

System: parasites
Details: background statement

CC[C@H]1OC(=O)[C@H](C)[C@@H](O[C@H]2C[C@@](C)(OC)[C@@H](O)[C@H](C)O2)[C@H](C)[C@@H](O[C@@H]2O[C@H](C)C[C@H](N(C)C)[C@H]2O)[C@](C)(O)C[C@@H](C)C(=O)[C@H](C)[C@@H](O)[C@]1(C)O [erythromycin]
antiparasitic activity: does not have antiparasitic activity
